Laboratory results published in ChEMBL document CHEMBL1151778, “Synthesis of macrocyclic trypanosomal cysteine protease inhibitors” (Bioorg Med Chem Lett, 2008).

Experiments:
Rhodesain = Rhodesain (Trypanosoma brucei rhodesiense, UniProt Q95PM0); test: Inhibition of Trypanosoma brucei rhodesiense recombinant rhodesain by fluorescence technique
Cruzipain = Cruzipain (Trypanosoma cruzi, UniProt P25779); test: Inhibition of Trypanosoma cruzi recombinant cruzain by fluorescence technique
Sequence of Cruzipain (P25779 whole entry): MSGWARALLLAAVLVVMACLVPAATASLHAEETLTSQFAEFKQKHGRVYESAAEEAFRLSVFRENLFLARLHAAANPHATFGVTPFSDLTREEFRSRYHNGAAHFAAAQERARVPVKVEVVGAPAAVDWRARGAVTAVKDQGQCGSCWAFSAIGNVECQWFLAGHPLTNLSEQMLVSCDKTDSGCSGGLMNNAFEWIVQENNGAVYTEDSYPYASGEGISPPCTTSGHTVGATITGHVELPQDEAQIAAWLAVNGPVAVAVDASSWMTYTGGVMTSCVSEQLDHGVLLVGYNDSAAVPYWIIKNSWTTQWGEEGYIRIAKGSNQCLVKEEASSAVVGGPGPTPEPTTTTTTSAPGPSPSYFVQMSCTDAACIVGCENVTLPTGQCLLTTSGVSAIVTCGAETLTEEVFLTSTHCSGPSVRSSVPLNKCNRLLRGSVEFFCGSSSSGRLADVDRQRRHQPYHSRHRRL

Sequence of Rhodesain (Q95PM0 whole entry): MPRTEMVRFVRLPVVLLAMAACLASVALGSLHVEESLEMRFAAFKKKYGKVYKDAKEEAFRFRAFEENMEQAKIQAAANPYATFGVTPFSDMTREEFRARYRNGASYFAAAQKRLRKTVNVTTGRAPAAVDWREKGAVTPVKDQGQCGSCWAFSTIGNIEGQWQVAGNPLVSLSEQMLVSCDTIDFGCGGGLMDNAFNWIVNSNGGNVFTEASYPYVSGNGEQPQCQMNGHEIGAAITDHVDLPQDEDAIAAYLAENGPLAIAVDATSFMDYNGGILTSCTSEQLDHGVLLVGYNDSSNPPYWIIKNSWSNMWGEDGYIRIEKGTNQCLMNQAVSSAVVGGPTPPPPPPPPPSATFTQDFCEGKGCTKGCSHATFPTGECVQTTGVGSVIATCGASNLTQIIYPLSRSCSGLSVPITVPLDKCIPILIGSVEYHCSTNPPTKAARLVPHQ

Compound	IC50 (Rhodesain)	IC50 (Cruzipain)
CC(C)C[C@@H]1N[C@@H](C(=O)Nc2ccccc2)CCCC[C@@H](/C=C/S(=O)(=O)c2ccccc2)NC1=O	10 µM	> 10 µM
CC(C)C[C@@H]1N[C@@H](C(=O)Nc2ccccc2)CCCCC[C@@H](/C=C/S(=O)(=O)c2ccccc2)NC1=O	6 µM	2 µM
